The first assay addresses EGFR (rat) (UniProt P00533). The note with it: rat-1/her cells.
EGFR (rat), sequence (P00533 whole entry, looked up): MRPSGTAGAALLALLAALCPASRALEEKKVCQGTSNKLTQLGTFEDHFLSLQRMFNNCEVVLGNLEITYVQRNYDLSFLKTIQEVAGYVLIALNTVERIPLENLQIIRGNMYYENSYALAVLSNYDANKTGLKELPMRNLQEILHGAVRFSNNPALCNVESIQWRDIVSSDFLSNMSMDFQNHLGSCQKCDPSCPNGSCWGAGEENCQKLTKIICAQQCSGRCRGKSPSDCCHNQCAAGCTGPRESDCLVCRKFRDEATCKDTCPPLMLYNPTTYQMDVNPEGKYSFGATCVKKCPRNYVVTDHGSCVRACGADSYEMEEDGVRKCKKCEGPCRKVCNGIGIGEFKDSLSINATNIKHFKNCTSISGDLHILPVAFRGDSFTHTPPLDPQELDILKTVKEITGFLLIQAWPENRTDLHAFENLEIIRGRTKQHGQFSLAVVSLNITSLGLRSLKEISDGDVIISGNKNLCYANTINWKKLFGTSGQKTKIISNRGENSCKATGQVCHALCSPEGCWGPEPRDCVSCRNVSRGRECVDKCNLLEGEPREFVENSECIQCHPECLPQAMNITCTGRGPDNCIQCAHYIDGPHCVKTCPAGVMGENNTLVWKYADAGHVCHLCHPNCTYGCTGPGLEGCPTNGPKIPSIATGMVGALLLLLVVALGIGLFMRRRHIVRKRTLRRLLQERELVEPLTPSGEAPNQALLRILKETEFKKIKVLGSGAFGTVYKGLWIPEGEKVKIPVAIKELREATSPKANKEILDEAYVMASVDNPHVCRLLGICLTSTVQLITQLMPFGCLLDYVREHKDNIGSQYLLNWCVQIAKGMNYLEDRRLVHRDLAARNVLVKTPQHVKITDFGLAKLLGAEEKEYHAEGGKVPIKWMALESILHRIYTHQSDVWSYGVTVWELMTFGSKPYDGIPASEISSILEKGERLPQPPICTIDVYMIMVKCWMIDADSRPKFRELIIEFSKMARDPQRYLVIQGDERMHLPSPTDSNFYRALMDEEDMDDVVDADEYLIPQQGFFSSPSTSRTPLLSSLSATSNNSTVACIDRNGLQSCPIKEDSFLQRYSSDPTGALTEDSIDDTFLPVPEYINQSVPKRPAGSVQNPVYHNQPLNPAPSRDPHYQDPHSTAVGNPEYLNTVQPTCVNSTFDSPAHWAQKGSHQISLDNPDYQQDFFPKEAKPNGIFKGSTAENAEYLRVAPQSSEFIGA
`COC1=C(Br)C(=O)[C@](CC#N)(OC(C)=O)C=C1Br` had an IC50 of 55 µM.
`COC1=C(Br)C(=O)[C@]2(C=C1Br)CO2` had an IC50 of 10 µM.
In turn, `COc1c(Br)cc(C=O)c(O)c1Br` returned an IC50 of 35 µM.
Consider `O=Cc1cc(Br)cc(Br)c1O`, for which the IC50 amounted to 120 µM.

The assay is the same for the next values; noted with them: rat-1/her cells, dose or concentration not given here.
In the case of `COc1c(Br)cc(CC#N)c(O)c1Br`, the inhibition is 0%.
Take `COc1c(Br)cc(CO)c(O)c1Br`: the inhibition is 0%.
In turn, `COc1c(Br)cc(O)c(O)c1Br` came in with an inhibition of 0%.
The compound `COC1=C(Br)C(O)(O)[C@@](O)(CC#N)CC1Br` (stereo partly drawn) yielded an inhibition of 0%.
Turning to `COc1ccc(C=O)c(O)c1`, the inhibition came out at 0%.
Compound `COC1=C(Br)[C@@H](O)[C@@](O)(CC#N)C=C1Br` came in with an inhibition of 0%.
For the compound `COC1=C(Br)C(=O)[C@@](O)(CC#N)C=C1Br`, the inhibition worked out at 0%.
`COC1=C(Br)[C@H](O)[C@@](O)(CC#N)C=C1Br`: the inhibition was 0%.
`COc1c(Br)cc2c(c1Br)OCO2`: the inhibition amounted to 0%.

Usually IC50 stands for the concentration that inhibits the measured activity by half. Read a low IC50 as greater potency in that assay. By inhibition is commonly meant the drop in the measured response relative to a control, in per cent. A lower inhibition goes with little suppression.
